Results as given in US20260108588A1, “A COMPLEX COMPRISING A ALPHA-LACTALBUMIN AND A FATTY ACID OR LIPID FOR USE IN THE TREATMENT OR PREVENTION OF CANCER” (LINNANE PHARMA AB, priority 2022, published 2026).

Legend:
[1] = system: intestinal tumors of Apc^Min/+ mice; assay: Intestinal cancer model in Apc^Min/+ mice, BAMLET in the drinking water (eight weeks and long term); assay type: in vivo; conditions: vs sham
Experimental: Apc^Min/+ mice were obtained from Jackson Laboratories at about eight weeks of age. Genotyping was performed by PCR analysis of genomic DNA obtained from blood collected from the retro-orbital sinus. Multiple tumors were developed in the small intestine at eight to ten weeks. Mice were acclimated for about two weeks at the local animal facility at BMC, Lund University in order to reduce stress from transportation.
For BAMLET prophylaxis protocol, ten-week-old female Apc^Min/+ mice (n=10 mice per group) were provided daily with BAMLET (20 mg/day in 5 ml PBS) in the drinking water for eight weeks and sacrificed at 18 weeks of age. A similar treatment was used in the survival study groups where mice were observed until 37 weeks of age.
Mice were sacrificed by isoflurane inhalation. Tumor enumeration and sample collection was presented as previously described^28. Tumor numbers and size were determined using a dissecting microscope (Olympus) and evaluated by three blinded investigators.
The opened intestinal segments were spread flat between sheets of filter paper and fixed overnight in 10% neutral buffered formalin. Formalin-fixed sections were transferred to 70% ethanol and stained with 0.2% methylene blue (Sigma, #M9140). Stained sections were rinsed in deionized water and imaged by a dissecting microscope.
(§1) Swiss rolls of longitudinally opened intestinal segments were fixed overnight in 10% neutral buffered formalin. Samples were embedded in paraffin and 5 μm thick sections were further processed for histology and immunohistochemistry using antibodies for bovine alpha-Lactalbumin (ThermoFisher Scientific, Cat #A10-128A), β-catenin (CellSignaling, Cat #9562), Cyclin D1 (ThermoFisher Scientific, Cat #SC8396), Ki-67 (BD Biosciences, Cat #556003), VEGF (Abcam, Cat #ab46154), PD-1 (Abcam, Cat #ab214421) and TTF-1 (Abcam, Cat #ab227652) as previously described^28 with slight modifications. Citrate buffer (Dako Target Retrieval Solution, Agilent, Cat #S1699) was used for antigen retrieval for Cyclin D1, Ki-67, VEGF, bovine alpha-Lactalbumin and β-catenin staining. EDTA buffer (Abcam, Cat #ab64216) was used for antigen retrieval for TTF-1 staining. Immunohistochemistry was quantified by ImageJ. For Hematoxylin-Eosin (H&E) staining, Hematoxylin (ThermoFisher Scientific, Cat #7211) was used followed by Eosin-Y (ThermoFisher Scientific, Cat #7111) for counterstaining. Images were captured using the AX10 microscope or the Hamamatzu Nanozoomer scanner (Carl Zeiss) and the DAB-positive beta-catenin antibody fields (4-10) for each organ cross-sections were quantified by ImageJ.

[2] = system: PD-1; assay: PD-1 staining of intestinal sections; assay type: in vivo, mice; conditions: tumor and healthy tissue areas, long-term drinking water, vs sham
Experimental: For PD-1 immunofluorescence staining, paraffin sections were deparaffinized in xylene, rehydrated with reduced ethanol concentrations and then washed with deionized water. The slides were then immerged in target retrieval solution (Dako, S1699) and boiled for 20 minutes, followed by 30 minutes permeabilization with 0.25% Triton in PBS at room temperature. A blocking solution consisting in 5% goat serum in PBS was added on the sections for 1 h at room temperature, before adding the rabbit monoclonal anti-mouse PD-1 antibody (Abcam-ab214421, 1:150) in 1% goat serum and incubated overnight at 4° C. The slides were then washed with 0.025% PBS-T and stained with goat anti-rabbit […] secondary antibody (1:200 for 1 h at room temperature, Invitrogen cat. n. A11034). The nuclei were counterstained with DAPI for 15 minutes, washed in PBS, and then mounted with Fluoromount aqueous mounting media (Sigma, F4680). Images were captured with the Hamamatzu Nanozoomer scanner and the fluorescence intensity was quantified by ImageJ.

[3] = system: DLD1 colorectal carcinoma cells; assay: Live cell imaging assay, cellular uptake of labelled BAMLET; assay type: cell-based, human; conditions: 21 μM, one hour
Experimental: To visualize the cellular uptake of BAMLET, cells were seeded on 6-well ibidi chambers (3.5×10^4 cells/well) overnight and then treated with Janelia Fluor-549 labeled (TOCRIS, Cat #6147) BAMLET mixed with unlabelled BAMLET (21 μM) for one hour at 37° C. The nuclei were counterstained for five minutes with DAPI (Abcam Cat #ab228549, 1:1,000) and uptake of labelled BAMLET was captured with the LSM 900 laser scanning confocal microscope with oil immersion ×63 objectives (Carl Zeiss).

[4] = system: DLD1 cells; assay: Cell death assays (Prestoblue and ATPlite); assay type: cell-based, human; conditions: 7, 21 and 35 μM; Prestoblue and ATPlite
Experimental: Two assays were used as an indirect measure of cell death. Luminescence-based ATPlite™ kit (Perkin Elmer) as well as the Prestoblue assay (ThermoFisher Scientific). Cells (5×10^4 cells/well) were seeded in serum-free RPMI-1640 on 96-well plates and treated with BAMLET and alpha1-oleate at different concentration (7, 21, and 35 μM) and incubated for one hour. Afterward, FCS was added at concentration of 5% and the cells were continuously incubated for two hours at 37° C., at the end of which the two kits were used according to manufactures' instructions. Luminescence and fluorescence were measured using a microplate reader (Infinite F200, Tecan). The experiments were performed in triplicate and repeated twice.

[5] = system: intestine of tumor bearing APC^Min/+ mice; assay: Real-time in vivo fluorescence imaging and immunohistochemistry of BAMLET in tumor-bearing mice
Excerpt: as §1
BAMLET was labeled using VivoTag 680XL Protein Labeling Kit (Perkin Elmer). Apc^Min/+ mice were orally gavaged with 10 mg of VivoTag 680-labelled BAMLET in 200 μl of PBS. The intestinal tissue samples were collected after 24 hours or 48 hours and imaged using an IVIS Spectrum imaging system (Perkin Elmer). BAMLET signal was acquired at fluorescent settings with 680 nm excitation.

[6] = system: healthy C57BL/6 mice; assay: BAMLET in healthy C57BL/6 mice: macroscopic inspection and intestinal gene expression analysis
Experimental: Approximately 5 mg of tissue was homogenized using a Tissuelyser (Qiagen) and total RNA was extracted using the RNeasy kit (Qiagen), amplified using a GeneChip 3'IVT Express Kit, hybridized onto Mouse Genome 430 PM array strips, and scanned using the GeneAtlas system (Affymetrix). Data was normalized using Robust Multi Average implemented in the Transcriptome Analysis Console software (v.4.0.1.36, Applied Biosystems, ThermoFisher Scientific). Relative expression was analyzed by ANOVA using the empirical Bayes method, and genes with an absolute fold change >1.5 or 2.0 were considered differentially expressed.
To identify effects on healthy tissues, healthy C57BL/6 mice received BAMLET by oral gavage or in the drinking water (FIG. 6). The effects were evaluated by macroscopic inspection of intestinal tissues and gene expression analysis.

[7] = long-term BAMLET in drinking water

BAMLET
polyp number and polyp size ([1]; 20 mg/day in drinking water, after eight weeks): markedly reduced | loss of body weight [1, 7]: prevented | survival (Kaplan-Meier analysis) [1, 7]: increase in survival | total polyp number and polyp size [1, 7]: reduced | PD-1 staining [2]: significantly lower | uptake of labelled BAMLET [3]: rapidly internalized into the cytoplasm and nuclei | cell viability [4]: rapid dose-dependent reduction | retention of VivoTag 680-labeled BAMLET in the intestine ([5]; 18-week-old APC^Min/+ mice, oral gavage, after 24 and 48 hours): Significant retention | time retained in tumor tissue ([5]; after the first oral dose): at least 48 hours | BAMLET staining in intestinal tissue sections ([5]; immunohistochemistry with BAMLET specific antibodies): detected | inflammatory or necrotic changes in the intestines or peripheral organs ([6]; gavage or drinking water, vs untreated controls): no evidence of inflammatory or necrotic changes | genes involved in lipid metabolism, glucose metabolism, insulin tolerance and immune regulation ([6]; intestinal tissue): significantly affected | toxic response (gene expression) ([6]; intestinal tissue): no evidence of a toxic response | number of regulated genes ([6]; intestinal tissue, cut-off fold change ≥1.5, P<0.05): about 150 genes | macroscopic appearance of tissues outside the intestinal tract ([6]; mouse, in vivo): No changes in macroscopic appearance | organ weights ([6]; mouse, in vivo): no change in organ weights
